{"source": "patent US6531512B1", "about": "“Method of treating cancer in patients having a deficiency in p53 tumor suppressor gene” (Health Research Inc., priority 1998, dated 2003)", "key": {"[1]": {"test_system": "SK-MEL-28 human melanoma cells", "assay": "Cell growth / apoptotic response of SK-MEL-28 cells (Coulter Counter, growth kinetics)", "type": "cell-based", "experimental": "MALME-3M human melanoma cells containing wt-p53 (American Tissue Type Culture Collection, Bethesda, Md.) and human SK-MEL-28 cells containing mt-p53 (American Tissue Type Culture Collection, Bethesda, Md.) were cultured as a monolayer in RPMI 1640 medium containing 10% Nu-Serum (Collaborative Research Products, Bedford, Mass.), 1 mM aminoguanidine, penicillin (50 units/ml) and streptomycin (50 μg/ml) as described by Kramer et al, J. Biol. Chem., 270:2124-32 (1995) and Kramer et al., Cancer Res., 57:5521-5527 (1997).\nMALME-3M cells were cultured as described in Example 1. The cells were seeded by adding 1×10^5 cells to a T-25 vented cell culture flask. After 24 hours, the asynchronous cell cultures were treated with 10 μM N^1, N^11-diethylnorspermine (DENSPM) prepared by dissolving DENSPM in distilled water and sterilizing the solution by filtration through a 0.22 micron Millipore membrane. The cells were treated by continuous exposure to DENSPM for 6 days (i.e., the polyamine was added to the cell culture at T=0 and the culture was incubated for the desired amount of time). The number of viable MALME-3M cells were monitored electronically using a Model ZM Coulter Counter (Coulter Electronics, Hialeah, Fla.). Untreated MALME-3M cell cultures were used as controls.\nMALME-3M human melanoma cells were cultured as described in Example 1 and treated continuously with 10 μM DENSPM or 10 μM spermine (SPM) for 48 hours. SK-MEL-28 cells were also cultured as described in Example 1 and treated with 10 μM DENSPM for 24 hours. Untreated cells were used as a control.\nThe effect of DENSPM and spermine on cell growth was monitored using a Coulter Counter (see Example 2). The effect on cell cycle was monitored by flow cytometry as described in Example 3. […]"}, "[2]": {"test_system": "ornithine decarboxylate (ODC)", "assay": "Polyamine enzyme activity in treated melanoma cells: ODC", "type": "cell-based, human", "conditions": "for ODC activity: 10 μM", "experimental": "(§1) MALME-3M human melanoma cells were cultured as described in Example 1 and treated with 10 μM DENSPM or 10 μM spermine (SPM) as described in Example 4. SK-MEL-28 cells were also cultured as described in Example 1 and treated with 10 μM DENSPM as describe in Example 4. Untreated cells were used as a control.\n(§2) After treatment with DENSPM or spermine, biochemical parameters including polyamine enzymes activity, polyamine pools and analog accumulation were monitored as described by Kramer et al, J. Biol. Chem., 270:2124-32 (1995) and Kramer et al., Cancer Res., 57:5521-5527 (1997). Polyamine enzyme activity was monitored for ornithine […] (ODC); S-adenosylmethionine decarboxylase (SAMDC); and spermidine/spermine N^1-acetyltransferase (SSAT). Polyamine pools was monitored for putrescine (Put); spermidine (Spd); and spermine (Spm).\n(§3) Enzyme activity and polyamine pools were measured as described in Example 5."}, "[3]": {"test_system": "SK-MEL-28 human melanoma cells", "assay": "Polyamine pools and analog accumulation in SK-MEL-28 cells", "type": "cell-based", "experimental": "as §1, §2, §3"}, "SK-MEL-28 cells": {"test_system": "SK-MEL-28 cells", "assay": "Apoptosis by proton NMR of membrane lipids (methylene/methyl ratio)", "type": "cell-based, human", "conditions": "10 μM", "experimental": "Apoptosis of MALME-3M and SK-MEL-28 cells due to treatment with 10 μM DENSPM was quantified using proton nuclear magnetic resonance (NMR) spectroscopy. NMR was used to detect membrane phospholipid spectral intensity changes which correlate with surface expression of phosphatidylserine, an early marker of apoptosis. Changes in methylene and methyl peaks were detected by the […] described by Blankenberg et al., Blood, 89:3778-3786 (1997).\nIntensity changes in membrane lipids was measured using NMR after 72 hours of continuous treatment with 10 μM DENSPM. […] The SK-MEL-28 cells undergo a rapid spectral ratio change which correlates with the massive cell loss seen in FIG. 4. Maximal cell death occurred by 48 hours in SK-MEL-28 cells. The data represent the mean ratio±standard deviation.\nFor perspective, a methylene to methyl spectral ratio of about 1 is typical of untreated cells while a ratio of about 3 is the maximum attainable with most apoptotic responses. Thus, the ratio of 2.6 observed with DENSPM-treated SK-MEL-28 cells at 48 hours represents a full scale response."}, "mRNA for p53 and p21": {"test_system": "mRNA for p53 and p21", "assay": "Northern blot of p53 and p21 mRNA in MALME-3M cells", "type": "cell-based, human", "conditions": "asynchronous, 10 μM", "experimental": "Asynchronously growing MALME-3M cells were treated for 0 to 48 hours with 10 μM DENSPM as described in Example 2. Northern blots were used to detect mRNA for p53 and p21. The Northern blot procedure is described by Fogel-Petrovic et al. in Molec. Pharn, 52:69-74 (1997); and Biochemistry, 35:14436-14444 (1996). cDNA probes used in Nothern blot hybridization of p21 and p53 mRNA were obtained, respectively, from Dr. Bert Vogelstein (Johns Hopkins Oncology Center, Baltimore, Md.; El-Deiry et al., Cell, 75:817-825) and from Dr. Stephen Friend (Seattle, Wash.; Ishioka et al., Oncogene 10:1485-1492 (1995)). The relative increase in mRNA with analog treatment was normalized to the […] (GAPDH) signal to account for lane loading differences."}, "[4]": {"conditions": "SK-MEL-28 (mt-p53), 10 μM, Table 2, 24 hours"}, "[5]": {"conditions": "SK-MEL-28 cells, 24 hours, Table 4"}}, "note": "“Also recorded” adds a separate entry of the source."}
{"compound": "CCNCCCNCCCNCCCNCC", "note": "[DENSPM, N^1,N^11-diethylnorspermine]", "values": [{"measurement": "% Growth Control", "setting": "[1]; [4]", "result": 26, "unit": "%"}, {"measurement": "% Control Growth", "setting": "[1]; [5]", "result": 30, "unit": "%"}, {"measurement": "cell growth and/or apoptosis response", "setting": "[1]; SK-MEL-28 cells, growth kinetic analysis", "result": "massive and rapid apoptotic response; also recorded: rapid cytotoxic response"}, {"measurement": "ODC activity", "setting": "[2]; MALME-3M (wt-p53), Table 2 (24 hours treatment)", "result": 30, "unit": "pmol/hr/mg protein"}, {"measurement": "ODC activity", "setting": "[2]; SK-MEL-28 (mt-p53), Table 2, 24 hours", "result": 5, "unit": "pmol/hr/mg protein"}, {"measurement": "Enzyme Activities, ODC", "setting": "[2]; [5]", "result": 37, "unit": "pmol/hr/mg protein"}, {"measurement": "Polyamine Pools, Put", "setting": "[3]; [4]", "result": 70, "unit": "pmol/10^6 cells"}, {"measurement": "Polyamine Pools, Spd", "setting": "[3]; [4]", "result": 20, "unit": "pmol/10^6 cells"}, {"measurement": "Polyamine Pools, Spm", "setting": "[3]; [4]", "result": 105, "unit": "pmol/10^6 cells"}, {"measurement": "decrease in spermine pools", "setting": "[3]; SK-MEL-28 cells, 24 hours", "result": 95, "unit": "%"}, {"measurement": "Analog (intracellular accumulation)", "setting": "[3]; [5]", "result": 7710, "unit": "pmol/10^6 cells"}, {"measurement": "Polyamine Pools, Put", "setting": "[3]; [5]", "result": 115, "unit": "pmol/10^6 cells"}, {"measurement": "Polyamine Pools, Spd", "setting": "[3]; [5]", "result": 45, "unit": "pmol/10^6 cells"}, {"measurement": "Polyamine Pools, Spm", "setting": "[3]; [5]", "result": 190, "unit": "pmol/10^6 cells"}, {"measurement": "time of maximal cell death", "setting": "SK-MEL-28 cells", "result": "≤ 48", "unit": "h"}, {"measurement": "methylene to methyl spectral ratio", "setting": "SK-MEL-28 cells; 48 hours", "result": 2.6}, {"measurement": "start of p21 mRNA increase", "setting": "mRNA for p53 and p21", "result": 12, "unit": "h"}, {"measurement": "p53 mRNA", "setting": "mRNA for p53 and p21; 0 to 48 hours, normalized to GAPDH", "result": "remained constant"}, {"measurement": "p21 mRNA increase", "setting": "mRNA for p53 and p21; 48 hours, normalized to GAPDH", "result": "about 20 fold"}]}
